The text below walks through data of US11395492B2, “Antimicrobial and agrochemical compositions” (Myco Sciences Limited, priority 2015, dated 2022).

Structures are written as SMILES. Read-outs that look alike come from different tables or passages of the source.

One data set has as its system spores of F. oxysporum. The data set is described as follows: Sporicidal assay (1) with sodium nitrite, F. oxysporum. Also: key: 2* = Control growth; 1 = Reduced growth; 0 = No growth. Format: cell-based, Fusarium oxysporum f. sp. cubense. The following applies: test item 1%, 30 min.
For data set [1], the system named is Rhizoctonia solani. Nature of the data set: Inhibition of fungal growth assay (radial growth on PDA). The following applies: for IC50 (% of stock solution) on growth of R. solani: potato dextrose agar, 24 hour culture at 22° C.
Method: Inhibition of fungal growth assay. The Rhizoctonia solani (R. solani) strain was isolated from sclerotia on the skin of a potato and was maintained in culture on potato dextrose agar (PDA) at room temperature (22° C.). To assess the effects of the compositions on fungal growth, 10 microliters of the test compositions diluted in sterile distilled water was placed in the wells of a 12-well tissue culture plate and 1 milliliter of PDA was added by pipette to each well. The plate was agitated to distribute the test composition evenly throughout the agar (distilled water alone was used as control) and then the agar was allowed to set. Plugs of agar containing fungal hyphae (3×3 millimeters) from an established fungal culture were cut out using a scalpel and inserted into holes cut into the centre of the agar in each well of the 12-well plate, which was then cultured at room temperature. To assess the effects of compositions on radial fungal growth, the diameter of the fungal hyphae was measured twice at a 90° angle using a ruler and the average diameter in millimeters was calculated. Concentrations of compositions required to inhibit the radial growth of R. solani by 50% (IC50) were determined graphically.
For a further data set, the system named is spores of B. cinerea. The data set is described as follows: Sporicidal assay (1) with sodium nitrite, B. cinerea.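 Also: score 0 no growth 1 reduced growth 2 control-level growth.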 In kind it is cell-based, Botrytis cinerea. Conditions: test item 1%, 30 min.
A short description of data set [2]: pH of diluted compositions and components. In kind it is physicochemical. Conditions: 1% suspension in water.
The subject of data set [3] is Rhizoctonia solani.
Method: To assess the effects of composition on fungal growth, 10 microliters of the test compositions diluted in sterile distilled water were placed in the wells of a 12-well tissue culture plate and 1 milliliter of PDA was added by pipette to each well. The plate was agitated to distribute the test composition evenly throughout the agar (distilled water alone was used as control) and then the agar was allowed to set. Plugs of agar containing fungal hyphae (3×3 millimeters) from an established fungal culture were cut out using a scalpel and inserted into holes cut into the centre of the agar in each well of the 12-well plate, which was then cultured at room temperature (22° C.). To assess the effects of compositions on radial fungal growth, the diameter the fungal hyphae was measured twice at a 90° angle using a ruler and the average diameter in millimeters was calculated. If no fungal growth could be detected by eye, the cultures were observed by phase microscopy (40×) to confirm that there was no growth (NG) as judged by visual examination.
To assess the effects of compounds and compositions on sclerotia formation, the R. solani cultures were examined daily and radial fungal growth was measured until the cultures were confluent after which time the development of white (immature) sclerotia and mature (black pigmented) sclerotia was noted and the number of mature sclerotia was counted on day 10 of culture.

On to `O.O.O.O.O.O=S(=O)([O-])[O-].[Cu+2]` [CuSO4, copper sulfate pentahydrate], for which the “Fungal growth score, spores of F. oxysporum” value with spores of F. oxysporum (NaNO2 0 mM), in the data set on spores of F. oxysporum (NaNO2 1 mM), in the data set on spores of F. oxysporum (NaNO2 3 mM), in the data set on spores of F. oxysporum (NaNO2 10 mM) and with spores of F. oxysporum (NaNO2 30 mM) was 2 in each case. In addition, the “IC50 (% of stock solution) on growth of R. solani” value (shortened to “IC50 (% of stock solution)”) in the data set on Rhizoctonia solani [1] is listed as 0.39 % of stock solution. Further, the “Fungal growth score, spores of B. cinerea” value was 2 in the data set with spores of B. cinerea (NaNO2 0 mM); 2 in the data set on spores of B. cinerea (NaNO2 1 mM); 2 in the data set with spores of B. cinerea (NaNO2 3 mM); 2 with spores of B. cinerea (NaNO2 10 mM); 2 in the data set on spores of B. cinerea (NaNO2 30 mM); 0 in the data set on spores of B. cinerea (NaNO2 100 mM).

With `[Cl-].[Cu+2].[Cu+2].[OH-].[OH-].[OH-]` [CuOCl-TP, copper oxychloride], in the data set on Rhizoctonia solani [1], the “IC50 (% of stock solution)” value is reported as 1.8 % of stock solution. Further, in data set [2], the “pH of a 1% suspension in water” value was 6.2.

`O=S(=O)([O-])[O-].[Zn+2]` [ZnSO4, zinc sulfate]: the “IC50 (% of stock solution)” value in the data set with Rhizoctonia solani [1] is recorded as 0.33 % of stock solution. The “Fungal growth score, spores of B. cinerea” value in the data set with spores of B. cinerea (NaNO2 0 mM) turned out to be 2; in the data set with spores of B. cinerea (NaNO2 1 mM) it was 2; in the data set on spores of B. cinerea (NaNO2 3 mM) it was 2; with spores of B. cinerea (NaNO2 10 mM) it was 2; in the data set with spores of B. cinerea (NaNO2 30 mM), 2; with spores of B. cinerea (NaNO2 100 mM) it was 1.

For `O=C(O)CNCP(=O)(O)O` [Glyphosate, 2-[(phosphonomethyl)amino] acetic acid], in the data set on Rhizoctonia solani [3] (0.27 g/L (Table 11)), the “Day 1 growth in mm” value came to 20 mm, the “Day black SCL 1st seen” value was determined as 5, the Day growth confluent came to 2 and the “Day white SCL 1st seen” value was found to be 3. For the same compound, the “No. black SCL on day 10” value in the data set with Rhizoctonia solani [3] (0.27 g/L (Table 11)) was greater than 20. Also, in the data set on Rhizoctonia solani [3] (0.8 g/L (Table 11)), the “Day 1 growth in mm” value was found to be 14 mm, the “Day black SCL 1st seen” value is on record as 6, the Day growth confluent is reported as 2 and the “Day white SCL 1st seen” value is recorded as 3. The “No. black SCL on day 10” value with Rhizoctonia solani [3] (0.8 g/L (Table 11)) was found to be 8. For the same compound, in the data set with Rhizoctonia solani [3] (2.7 g/L (Table 11)), the “Day 1 growth in mm” value worked out at 8 mm, the “Day black SCL 1st seen” value came to 8, the Day growth confluent came to 6 and the “Day white SCL 1st seen” value stood at 6. For the same compound, in the data set with Rhizoctonia solani [3] (2.7 g/L (Table 11)), the “No. black SCL on day 10” value stood at 4. In the data set on Rhizoctonia solani [3] (8 g/L (Table 11)), the “Day 1 growth in mm” value was 6 mm and the “No. black SCL on day 10” value turned out to be 0.

In the case of `O=[PH]([O-])O.[K+]` [Potassium phosphite, potassium phosphite], the “IC50 values with R. solani (fungal growth)” value with Rhizoctonia solani [1] was roughly 400 mg/L. For the same compound, in the data set on Rhizoctonia solani [3] (10 mg/L (Table 9)), the “Day 1 growth in mm” value was 19 mm, the “Day black SCL 1st seen” value is recorded as 5, the Day growth confluent is listed as 2 and the “Day white SCL 1st seen” value is recorded as 3. In addition, in the data set on Rhizoctonia solani [3] (10 mg/L (Table 9)), the “No. black SCL on day 10” value is on record as 9. For the same compound, in the data set on Rhizoctonia solani [3] (20 mg/L (Table 9)), the “Day 1 growth in mm” value is given as 19 mm, the “Day black SCL 1st seen” value is recorded as 7, the Day growth confluent is given as 2 and the “Day white SCL 1st seen” value is on record as 4. Also, in the data set with Rhizoctonia solani [3] (20 mg/L (Table 9)), the “No. black SCL on day 10” value came out at 2. In the data set with Rhizoctonia solani [3] (40 mg/L (Table 9)), the “Day 1 growth in mm” value worked out at 19 mm, the Day growth confluent was 2 and the “No. black SCL on day 10” value was 0. In addition, in the data set with Rhizoctonia solani [3] (80 mg/L (Table 9)), the “Day 1 growth in mm” value is 18 mm, the Day growth confluent was found to be 2 and the “No. black SCL on day 10” value is on record as 0. In the data set on Rhizoctonia solani [3] (160 mg/L (Table 9)), the “Day 1 growth in mm” value was determined as 15 mm, the Day growth confluent came out at 3 and the “No. black SCL on day 10” value is on record as 0.

For `NCP(=O)(O)O` [AMPA, aminomethyl phosphonic acid], in the data set with Rhizoctonia solani [3] (0.1 g/L (Table 11)), the “Day 1 growth in mm” value is on record as 20 mm, the “Day black SCL 1st seen” value is 5, the Day growth confluent turned out to be 2 and the “Day white SCL 1st seen” value was found to be 3. Besides, the “No. black SCL on day 10” value in the data set with Rhizoctonia solani [3] (0.1 g/L (Table 11)) is greater than 20. Also, in the data set on Rhizoctonia solani [3] (0.3 g/L (Table 11)), the “Day 1 growth in mm” value came to 19 mm, the “Day black SCL 1st seen” value amounted to 8, the Day growth confluent was determined as 2 and the “Day white SCL 1st seen” value is 3. In addition, in the data set with Rhizoctonia solani [3] (0.3 g/L (Table 11)), the “No. black SCL on day 10” value was greater than 20. In the data set with Rhizoctonia solani [3] (1 g/L (Table 11)), the “Day 1 growth in mm” value was 17 mm, the “Day black SCL 1st seen” value was 9, the Day growth confluent was determined as 2 and the “Day white SCL 1st seen” value is 5. Also, the “No. black SCL on day 10” value in the data set on Rhizoctonia solani [3] (1 g/L (Table 11)) was determined as 5.
